The subject of series [1] is VEGF promoter. As to the kind of experiment: VEGF transcription inhibitory activity, VEGF-PLAP reporter in U251/1-8 cells under hypoxic conditions. Type of series: cell-based. Particulars: Homo sapiens, U-251, hypoxic (2% O2) incubator 18 hours, PLAP activity in culture supernatant. An excerpt:
In order to prepare a reporter system in which transcription from a VEGF promoter is reflected, a VEGF promoter sequence was cloned and inserted into a placental alkaline phosphatase (PLAP) vector to construct a reporter vector.
In order to obtain a promoter region of human VEGF, a VEGF genome was cloned from a phage library. Based on VEGF cDNA (GenBank accession number: X62568), a PCR primer with the sequence described as SEQ ID NO: 1 or SEQ ID NO: 2 was designed and used for conducting PCR, thereby obtaining a fragment of about 340 bp. A human genomic phage library (human genomic library, Clontech) was screened using this fragment as a probe to obtain pUC18-VEGFA containing a VEGF 5′-flanking region of about 5.4 kb. This pUC18-VEGFA was cut with Kpn I/Nhe I to obtain a VEGF promoter region of about 2.3 kb, and the region was inserted into the multicloning site Kpn I/Nhe I of the placental alkaline phosphatase (PLAP) reporter vector (Goto et al., Mol. Pharmacol., 49, 860-873, 1996) to construct a VEGF-PLAP vector.
The above-described VEGF-PLAP vector was introduced into U251 cells cultured in a Dulbecco's modified Eagle's medium containing 10% fetal bovine serum (DMEM, manufactured by Sigma Co.), and cultured in the presence of 1 mg/ml G418 (Merck & Co., Inc.) to establish a G418-resistant stable clone (U251/1-8 cells).
As in a report by Minchenko et al. (Cell. Mol. Biol. Res., 40, 35-39, 1994), U251/1-8 cells were confirmed to be a reporter system which secretes PLAP into a culture medium under hypoxic conditions (2% O2 incubator), and in which transcription from a VEGF promoter is reflected. […]
The cells were cultured in a CO2 incubator (5% CO2) at 37° C. overnight, and 20 μl of the above-described culture solution containing the test compound at threefold serial dilutions was added. […] After the reaction for one hour, chemiluminescence was detected using a microplate reader (PerkinElmer) to measure the PLAP activity as the alkaline phosphatase activity. […] The IC50 values of compounds of the formula (I) were determined.

The test system of series [2] is WiDr human colon cancer cells. As to the kind of experiment: Action of inhibiting proliferation of WiDr human colon cancer cells (MTT). Type of series: cell-based. The following applies: 72 h, three days culture, read-out: WiDr human colon cancer cell proliferation inhibitory activity (IC50: nM). How it is done: 2×10^3 cells/well of WiDr human colon cancer cells cultured in a Dulbecco's modified Eagle's medium containing 10% fetal bovine serum, penicillin (100 units/mL) and streptomycin (100 μg/mL) (DMEM, manufactured by Sigma Co.) were plated in a 96-well plate. The cells were cultured in a CO2 incubator overnight, and 20 μL of the above-described culture solution containing the test compound at threefold serial dilutions was added for culturing the cells. After three days, 50 μL of a 3.3 mg/mL MTT solution was added, and the cells were further cultured for one hour. Then, formazan generated by reduction by living cells was extracted with 100 μL of DMSO to measure the absorbance (A540/A660), which was used as an index of the number of living cells.
The concentration for inhibiting 50% of proliferation of WiDr human colon cancer cells (IC50 value) of the compound of the formula (I) was determined.

Series [3] has as its system P388 mouse leukemia cells. The following applies: RPM-1640 culture medium; cited from earlier work.
Series [4] deals with P388 mouse leukemia cells. Particulars: in vivo experiment using P388 mouse leukemia cells; cited from earlier work.
Series [5] has as its system L-1210 mouse leukemia cells. The following applies: RPM-1640 culture medium; cited from earlier work.
For series [6], the system named is HL-60 human leukemia cells. Particulars: RPM-1640 culture medium; cited from earlier work.
A short description of series [7]: Stability in an aqueous solution.

For the compound `CCC(OC(=O)Nc1ccccc1)C(C)C1OC1CC(C)/C=C/C=C(\C)C1OC(=O)CC(O)CCC(C)(O)C(OC(=O)N2CCN(C)CC2)/C=C/C1C` (centres unmarked) [Example 3, (8E,12E,14E)-3,6-dihydroxy-6,10,12,16,20-pentamethyl-7-((4-methylpiperazin-1-yl)carbonyl)oxy-21-(N-phenylcarbamoyloxy)-18,19-epoxytricosa-8,12,14-trien-11-olide], the values for the IC50 in series [1] and in series [2] were 11.8 nM and 4.8 nM, respectively.

`CCC(OC(=O)c1ccccc1)C(C)C1OC1CC(C)/C=C/C=C(\C)C1OC(=O)CC(O)CCC(C)(O)C(OC(=O)N2CCN(C)CC2)/C=C/C1C` (centres unmarked) [Example 1, (8E,12E,14E)-21-benzoyloxy-3,6-dihydroxy-6,10,12,16,20-pentamethyl-7-((4-methylpiperazin-1-yl)carbonyl)oxy-18,19-epoxytricosa-8,12,14-trien-11-olide]: the values for the IC50 in series [1] and in series [2] were 20.7 nM and 5.9 nM, respectively.

For the compound `CCC(OC(=O)N(C)C)C(C)C1OC1CC(C)/C=C/C=C(\C)C1OC(=O)CC(O)CCC(C)(O)C(OC(=O)N2CCN(C)CC2)/C=C/C1C` (centres unmarked) [Example 2, (8E,12E,14E)-21-(N,N-dimethylcarbamoyloxy)-3,6-dihydroxy-6,10,12,16,20-pentamethyl-7-((4-methylpiperazin-1-yl)carbonyl)oxy-18,19-epoxytricosa-8,12,14-trien-11-olide], the figures for the IC50 in series [1] and in series [2] were 4.2 nM and 2.4 nM, respectively.

For `CCC(OC)C(C)C1OC1C(O)C(C)/C=C/C=C(\C)C1OC(=O)CC(O)CCC(C)(O)C(OC(C)=O)/C=C/C1C` (centres unmarked) [FD-895], the “Cytotoxic activity in vitro” value in series [3], in series [5] and in series [6] was “has cytotoxic activity in vitro” each time. Also, in series [4], the “Antitumor activity in vivo” value is listed as “did not show antitumor activity”. Besides, the “Stability in an aqueous solution” value in series [7] is given as “instable in an aqueous solution”.

These data come from patent publication US7576204B2, “Heterocyclic macrolide pharmaceutical agent, a method of producing the same and use of the same” (priority 2002, dated 2009).
